Laboratory results: patent US5422341A, “Motilin-like polypeptides with gastrointestinal motor stimulating activity” (Ohmeda Pharmaceutical Products Division Inc., priority 1993, dated 1995)
Structures can show the parent of a compound that is named as a salt. Square brackets hold non-standard residues; d marks the D form. Peptide text beside a SMILES is read from it. * marks the point of attachment. X1 = C[N+](C)(C)[C@@H](Cc1ccccc1)C(=O)*; NMe2Phe = CN(C)[C@@H](Cc1ccccc1)C(=O)*; NMeF = CN[C@@H](Cc1ccccc1)C(=O)O

What was measured:
motilin receptor = biological target: T1, motilin receptor (Oryctolagus cuniculus, UniProt G1T803); assay: Determination of motilin receptor binding affinity (displacement of [125I-Tyr7, Nle13]motilin(porcine)); set-up: species or system rabbit; settings: negative logarithm of the concentration displacing 50% of [125I-Tyr7, Nle13]motilin(porcine) from rabbit antral smooth muscle membranes; read-out: pIC50 (converted)
T1 construct: from tissue; host or cells: rabbit antral smooth muscle membranes
T1 sequence (G1T803 1-400): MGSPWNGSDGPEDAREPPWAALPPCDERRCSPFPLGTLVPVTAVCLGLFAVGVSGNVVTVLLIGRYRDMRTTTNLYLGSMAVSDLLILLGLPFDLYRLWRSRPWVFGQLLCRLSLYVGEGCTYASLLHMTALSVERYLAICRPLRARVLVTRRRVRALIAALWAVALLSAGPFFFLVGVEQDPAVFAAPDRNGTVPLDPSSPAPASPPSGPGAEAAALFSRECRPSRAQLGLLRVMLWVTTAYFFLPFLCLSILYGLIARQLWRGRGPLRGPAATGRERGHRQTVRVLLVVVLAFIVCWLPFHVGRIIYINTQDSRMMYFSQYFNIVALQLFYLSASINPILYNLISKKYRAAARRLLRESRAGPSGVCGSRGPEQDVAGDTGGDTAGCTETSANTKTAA
Procedure: The motilin receptor binding affinity of the peptides of this invention was determined by using the general procedure of Bormans, Peelers and Vantrappen, Regul. […] Fitting was performed using the iterative least-squares procedure of the SAS-software package (SAS Institute, Inc., Cary, N.C., USA).

[1] = tested on: canine gastrointestinal tract; assay: Contractile activity in the canine gastrointestinal tract; format: in vivo, dog; settings: anesthetized dogs, intra-arterial injection to a duodenal segment; amount giving 50% of the calibration response to field stimulation
Procedure: Mongrel dogs of either sex were anesthetized with sodium pentobarbital 65 mg/kg intravenously. A mid-line incision was made in the abdomen. A duodenal segment was located, the terminal arteries to that segment were identified, and the closest possible artery of the appropriate size was rubbed clean of fat and fascia. A needle of suitable diameter was bent at an angle and the tip inserted in the cleaned artery. The needle was held in position in the artery for approximately 30 seconds until vascular spasm has relaxed and then a catheter assembly was inserted into the artery and tied into position with 000 silk sutures. The fine polyethylene catheter (10-15 cm) was cut to a point at one end with a needle inserted at the other end. The hub of the needle was fitted with a 3-way stopcock and the catheter assembly was filled with heparinized Krebs Ringer bicarbonate containing 10 mM glucose. A bolus of Krebs (free of air) was injected into the arterial catheter and the distribution of blanching in the segment noted. If the area was too large, collateral arteries may be tied off as long as circulation to the area was maintained. A Bass type strain gauge was then sutured to the serosa, and oriented so that circular muscle contractions can be recorded on a Beckman R611 dynograph. Silver wire electrodes were inserted subserosally on either side of the strain gauge and were connected through stimulus isolation units to a Grass S88 electrical stimulator. Electrical field stimulation was applied at 40 V 0.5 ms and 5 pps and the amplitude of the pen recorder was set to contain the contractile response.
All peptides to be injected were dissolved in Krebs and serial dilutions were prepared so that for any concentration the maximum volume to be injected was 1 ml. All solutions except stock Krebs were held on ice for the day of the experiment and discarded at the end of the day. For determination of a dose-response curve, the site was first injected with a bolus of approximately 1 ml of heparinized Krebs to provide a flush control. Peptide agonists (in volumes of 1 ml flushed with 1 ml of Krebs) were injected in logarithmic increments until a response which was maximal in amplitude was obtained. The injection site was then flushed with Krebs containing 0.1% BSA to displace any peptide remaining in the arterial line. For peptides acting at the motilin receptor, care was taken not to inject supramaximal doses as these will induce tachyphylaxis. Therefore, as responses become apparent, 0.3 or 0.5 log unit increments were used. A site was used for a dose-response determination only every 1/2 to 1 hour.
The amplitude of the calibration response to field stimulation in each site was measured and used as 100% for that site. The amplitude of the response to the agonist at each dose was determined, calculated as a % of the calibration response and plotted against the concentration. The ED50 of the response represents the amount of agonist required to produce a response which was 50% of the calibration response.

[2] = biological target: segments of rabbit duodenum (Oryctolagus cuniculus, UniProt G1T803); assay: Rabbit duodenal smooth muscle strip tissue bath assay; format: cell-based; settings: negative logarithm of the dose giving 50% of the maximal response to motilin; isotonic contraction of rabbit duodenum segments
Sequence of segments of rabbit duodenum (G1T803 1-400): as above
How it was run: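 Isotonic contraction of rabbit duodenal segments after 1 h equilibration and 10^-4 M acetylcholine challenge; cumulative compound curve over 10^-11 to 10^-4 M, then 10^-7 M motilin. Runs discarded if final acetylcholine response differed >5%. EC50 at 50% of maximal motilin response, reported as pEC50.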

Row | Compound | IC50 (motilin receptor) [nM] | ED50 [1] [nmol] | pEC50 [2]
1 | CC[C@H](C)[C@H](NC(=O)[C@H](C)NC(=O)[C@@H](NC(=O)[C@H](Cc1ccccc1)[N+](C)(C)C)C(C)C)C(=O)N[C@@H](Cc1ccccc1)C(=O)N[C@H](C(=O)N[C@@H](Cc1ccc(O)cc1)C(=O)NCC(=O)N[C@@H](CCC(=O)O)C(=O)N[C@@H](CC(C)C)C(=O)N[C@@H](C)C(=O)N[C@H](CCCNC(=N)N)C(=O)N[C@@H](CC(C)C)C(=O)N[C@@H](CCCCN)C(N)=O)[C@@H](C)O (X1-VAIFTYGELA[dR]LK-NH2) | 1.91 | 0.001 | 7.59
2 | CC[C@H](C)[C@H](NC(=O)[C@H](C)NC(=O)[C@@H](NC(=O)[C@H](Cc1ccccc1)N(C)C)C(C)C)C(=O)N[C@@H](Cc1ccccc1)C(=O)N[C@H](C(=O)N[C@@H](Cc1ccc(O)cc1)C(=O)NCC(=O)N[C@@H](CCC(=O)O)C(=O)N[C@@H](CC(C)C)C(=O)N[C@@H](C)C(=O)N[C@H](CCCNC(=N)N)C(=O)N[C@@H](CC(C)C)C(=O)N[C@@H](CCCCN)C(N)=O)[C@@H](C)O (NMe2Phe-VAIFTYGELA[dR]LK-NH2) | 0.708 | 0.003 | 7.74
3 | CC[C@H](C)[C@H](NC(=O)[C@@H]1CCCN1C(=O)[C@@H](NC(=O)[C@H](Cc1ccccc1)NC)C(C)C)C(=O)N[C@@H](Cc1ccccc1)C(=O)N[C@H](C(=O)N[C@@H](Cc1ccc(O)cc1)C(=O)NCC(=O)N[C@@H](CCC(=O)O)C(=O)N[C@@H](CC(C)C)C(=O)N[C@@H](C)C(=O)N[C@H](CCCNC(=N)N)C(=O)N[C@@H](CC(C)C)C(=O)N[C@@H](CCC(N)=O)C(N)=O)[C@@H](C)O (H-[NMeF]VPIFTYGELA[dR]LQ-NH2) | – | 0.0018 | –
4 | CC[C@H](C)[C@H](NC(=O)[C@@H]1CCCN1C(=O)[C@@H](NC(=O)[C@H](Cc1ccccc1)NC)C(C)C)C(=O)N[C@@H](Cc1ccccc1)C(=O)N[C@H](C(=O)N[C@@H](Cc1ccc(O)cc1)C(=O)NCC(=O)N[C@@H](CCC(=O)O)C(=O)N[C@@H](CC(C)C)C(=O)N[C@@H](CCC(N)=O)C(=O)N[C@H](CCCNC(=N)N)C(=O)N[C@@H](CC(C)C)C(=O)N[C@H](CCC(N)=O)C(N)=O)[C@@H](C)O (H-[NMeF]VPIFTYGELQ[dR]L[dQ]-NH2) | – | 0.0004 | –
5 | CC[C@H](C)[C@H](NC(=O)[C@H](C)NC(=O)[C@@H](NC(=O)[C@H](Cc1ccccc1)NC)C(C)C)C(=O)N[C@@H](Cc1ccccc1)C(=O)N[C@H](C(=O)N[C@@H](Cc1ccc(O)cc1)C(=O)NCC(=O)N[C@@H](CCC(=O)O)C(=O)N[C@@H](CC(C)C)C(=O)N[C@@H](C)C(=O)N[C@H](CCCNC(=N)N)C(=O)N[C@@H](CC(C)C)C(=O)N[C@@H](CCCCN)C(N)=O)[C@@H](C)O (H-[NMeF]VAIFTYGELA[dR]LK-NH2) | 0.724 | 0.001 | 7.77
6 | CC[C@H](C)[C@H](NC(=O)[C@H](C)NC(=O)[C@@H](NC(=O)[C@H](Cc1ccccc1)[N+](C)(C)C)C(C)C)C(=O)N[C@@H](Cc1ccccc1)C(=O)N[C@H](C(=O)N[C@@H](Cc1ccc(O)cc1)C(=O)NCC(=O)N[C@@H](CCC(=O)O)C(=O)N[C@@H](CC(C)C)C(=O)N[C@@H](CCC(N)=O)C(=O)N[C@H](CCCNC(=N)N)C(=O)N[C@@H](CC(C)C)C(=O)N[C@@H](CCCCN)C(N)=O)[C@@H](C)O (X1-VAIFTYGELQ[dR]LK-NH2) | 1.91 | 0.89 | 7.32
7 | CC[C@H](C)[C@H](NC(=O)[C@H](C)NC(=O)[C@@H](NC(=O)[C@H](Cc1ccccc1)NC)C(C)C)C(=O)N[C@@H](Cc1ccccc1)C(=O)N[C@H](C(=O)N[C@@H](Cc1ccc(O)cc1)C(=O)NCC(=O)N[C@@H](CCC(=O)O)C(=O)N[C@@H](CC(C)C)C(=O)N[C@@H](CCC(N)=O)C(=O)N[C@H](CCCNC(=N)N)C(=O)N[C@@H](CC(C)C)C(=O)N[C@@H](CCCCN)C(N)=O)[C@@H](C)O (H-[NMeF]VAIFTYGELQ[dR]LK-NH2) | 0.631 | 0.06 | 7.72
8 | CC[C@H](C)[C@H](NC(=O)[C@@H]1CCCN1C(=O)[C@@H](NC(=O)[C@H](Cc1ccccc1)N(C)C)C(C)C)C(=O)N[C@@H](Cc1ccccc1)C(=O)N[C@H](C(=O)N[C@@H](Cc1ccc(O)cc1)C(=O)NCC(=O)N[C@@H](CCC(=O)O)C(=O)N[C@@H](CC(C)C)C(=O)N[C@@H](CCC(N)=O)C(=O)N[C@H](CCCNC(=N)N)C(=O)N[C@@H](CC(C)C)C(=O)N[C@@H](CCCCN)C(N)=O)[C@@H](C)O (NMe2Phe-VPIFTYGELQ[dR]LK-NH2) | 1.17 | 0.002 | 7.73
9 | CC[C@H](C)[C@H](NC(=O)[C@H](C)NC(=O)[C@@H](NC(=O)[C@H](Cc1ccccc1)NC)C(C)C)C(=O)N[C@@H](Cc1ccccc1)C(=O)N[C@H](C(=O)N[C@@H](Cc1ccc(O)cc1)C(=O)NCC(=O)N[C@@H](CCC(=O)O)C(=O)N[C@@H](CC(C)C)C(=O)N[C@@H](CCC(N)=O)C(=O)N[C@H](CCCNC(=N)N)C(=O)N[C@@H](CC(C)C)C(=O)N[C@@H](CCC(N)=O)C(N)=O)[C@@H](C)O (H-[NMeF]VAIFTYGELQ[dR]LQ-NH2) | – | 0.024 | –
10 | CC[C@H](C)[C@H](NC(=O)[C@@H]1CCCN1C(=O)[C@@H](NC(=O)[C@H](Cc1ccccc1)N(C)C)C(C)C)C(=O)N[C@@H](Cc1ccccc1)C(=O)N[C@H](C(=O)N[C@@H](Cc1ccc(O)cc1)C(=O)NCC(=O)N[C@@H](CCC(=O)O)C(=O)N[C@@H](CC(C)C)C(=O)N[C@@H](C)C(=O)N[C@H](CCCNC(=N)N)C(=O)N[C@@H](CC(C)C)C(=O)N[C@@H](CCCCN)C(N)=O)[C@@H](C)O (NMe2Phe-VPIFTYGELA[dR]LK-NH2) | 1.23 | 0.003 | 7.64
11 | CC[C@H](C)[C@H](NC(=O)[C@H](C)NC(=O)[C@@H](NC(=O)[C@H](Cc1ccccc1)[N+](C)(C)C)C(C)C)C(=O)N[C@@H](Cc1ccccc1)C(=O)N[C@H](C(=O)N[C@@H](Cc1ccc(O)cc1)C(=O)NCC(=O)N[C@@H](CCC(=O)O)C(=O)N[C@@H](CC(C)C)C(=O)N[C@@H](C)C(=O)N[C@H](CCCNC(=N)N)C(=O)N[C@@H](CC(C)C)C(=O)N[C@H](CCCCN)C(N)=O)[C@@H](C)O (X1-VAIFTYGELA[dR]L[dK]-NH2) | 1.15 | 0.007 | 7.55
12 | CC[C@H](C)[C@H](NC(=O)[C@H](C)NC(=O)[C@@H](NC(=O)[C@H](Cc1ccccc1)NC)C(C)C)C(=O)N[C@@H](Cc1ccccc1)C(=O)N[C@H](C(=O)N[C@@H](Cc1ccc(O)cc1)C(=O)NCC(=O)N[C@@H](CCC(=O)O)C(=O)N[C@@H](CC(C)C)C(=O)N[C@@H](C)C(=O)N[C@H](CCCNC(=N)N)C(=O)N[C@@H](CC(C)C)C(=O)N[C@H](CCCCN)C(N)=O)[C@@H](C)O [[1-N-Methylphenylalanine, 3-alaninc, 11-alanine, 12-D-arginine, 13-Leucine, 14-D-lysine]motilin-(1-14)-peptide Amide (Porcine) Tris-trifluoroacetate Salt] (H-[NMeF]VAIFTYGELA[dR]L[dK]-NH2) | 0.447 | 0.024 | 7.80
